Assay results published in the supplement of paper PMC10307832.

Key:
Assay in all cases: relative viability (nuclei count vs DMSO), 5 days (fraction); higher = more cells survive
[1] = compound: C1COCCN1CC2=CC(=O)C(=CO2)OCCCCCSC3=C4C=CC(=CC4=NC=C3)C(F)(F)F [EHT 1864] + CS(=O)(=O)N1CCN(Cc2cc3nc(-c4cccc5[nH]ncc45)nc(N4CCOCC4)c3s2)CC1 [Pictilisib] (partner 1 µM)
Method in brief: (§1)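 Lung cancer cell lines, seeded in 1536-well plates, were treated the following day by pin tool with a single drug or with five library-drug doses (not always all listed) in √10 steps on top of a fixed anchor-drug dose. Cells were fixed and nuclei stained in one step after 5 days, and nuclei were counted. Relative viability is the nuclei count for treated wells divided by that for vehicle wells, reported as medians of duplicate plates.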

[2] = compound: C1COCCN1CC2=CC(=O)C(=CO2)OCCCCCSC3=C4C=CC(=CC4=NC=C3)C(F)(F)F [EHT 1864] + O=C(c1cc(Cc2n[nH]c(=O)c3ccccc23)ccc1F)N1CCN(C(=O)C2CC2)CC1 [Olaparib] (partner 8 µM)
Method in brief: as §1

[3] = compound: C1COCCN1CC2=CC(=O)C(=CO2)OCCCCCSC3=C4C=CC(=CC4=NC=C3)C(F)(F)F [EHT 1864] + CC(=O)Nc1cccc(-n2c(=O)n(C3CC3)c(=O)c3c(Nc4ccc(I)cc4F)n(C)c(=O)c(C)c32)c1 [Trametinib] (partner 0.02 µM)
Method in brief: as §1

[4] = compound: C1COCCN1CC2=CC(=O)C(=CO2)OCCCCCSC3=C4C=CC(=CC4=NC=C3)C(F)(F)F [EHT 1864] + CC(C)C[C@H](NC(=O)[C@H](Cc1ccccc1)NC(=O)c1cnccn1)B(O)O [Bortezomib] (partner 0.002 µM)
Method in brief: as §1

Row | Cell Line | relative viability ([1]; first compound 0.04 µM) | relative viability ([1]; first compound 0.4 µM) | relative viability ([1]; first compound 1.265 µM) | relative viability ([1]; first compound 4 µM) | relative viability ([2]; first compound 0.04 µM) | relative viability ([2]; first compound 0.1265 µM) | relative viability ([2]; first compound 0.4 µM) | relative viability ([2]; first compound 1.265 µM) | relative viability ([2]; first compound 4 µM) | relative viability ([3]; first compound 0.04 µM) | relative viability ([3]; first compound 0.1265 µM) | relative viability ([3]; first compound 0.4 µM) | relative viability ([3]; first compound 1.265 µM) | relative viability ([3]; first compound 4 µM) | relative viability ([1]; first compound 0.1265 µM) | relative viability ([4]; first compound 0.04 µM) | relative viability ([4]; first compound 0.1265 µM) | relative viability ([4]; first compound 0.4 µM) | relative viability ([4]; first compound 1.265 µM) | relative viability ([4]; first compound 4 µM)
1 | NCI-H358 | 0.349 | 0.342 | 0.315 | 0.3 | 0.626 | 0.594 | 0.574 | 0.551 | 0.548 | 0.138 | 0.126 | 0.153 | 0.14 | 0.124 | – | – | – | – | – | –
2 | NCI-H522 | – | – | – | – | 0.719 | 0.66 | 0.63 | 0.666 | 0.734 | 0.756 | 0.917 | 0.836 | 0.722 | 0.756 | – | – | – | – | – | –
3 | NCI-H1299 | 0.71 | 0.725 | 0.729 | 0.684 | 0.96 | 0.939 | 0.964 | 0.913 | 0.893 | – | – | – | – | – | 0.669 | 1.02 | 0.986 | 0.993 | 0.994 | 0.917
4 | NCI-H1395 | 0.66 | 0.58 | 0.59 | 0.588 | 0.472 | 0.548 | 0.48 | 0.488 | 0.459 | 1.07 | 0.908 | 0.977 | 0.978 | 1.08 | 0.557 | – | – | – | – | –
5 | NCI-H1563 | 0.62 | 0.638 | 0.656 | 0.669 | – | – | – | – | – | – | – | – | – | – | 0.637 | 0.901 | 0.853 | 0.861 | 0.89 | 0.751
6 | NCI-H1648 | – | – | – | – | 0.765 | – | 0.759 | 0.769 | 0.984 | 0.545 | – | 0.44 | 0.4 | 0.607 | – | – | – | – | – | –
7 | NCI-H1703 | 0.222 | 0.26 | 0.251 | 0.266 | 0.396 | – | 0.461 | 0.277 | 0.291 | – | – | – | – | – | 0.245 | 0.253 | 0.427 | 0.363 | 0.307 | 0.315
8 | NCI-H1793 | – | 0.366 | 0.3 | 0.311 | 0.797 | 0.736 | 0.971 | 0.681 | 0.874 | 0.37 | 0.356 | 0.465 | 0.428 | 0.434 | 0.465 | – | – | – | – | –
9 | NCI-H1944 | 0.355 | 0.344 | 0.359 | 0.312 | 0.376 | – | 0.392 | 0.416 | 0.367 | 0.426 | – | 0.42 | 0.39 | 0.387 | – | – | – | – | – | –
10 | NCI-H2170 | 0.371 | 0.374 | 0.309 | 0.275 | 0.595 | 0.628 | 0.61 | 0.581 | 0.547 | 0.893 | 0.779 | 0.911 | 0.886 | 0.911 | 0.272 | – | – | – | – | –
11 | NCI-H2342 | – | – | – | – | 0.402 | 0.409 | 0.474 | 0.39 | 0.451 | 0.71 | 0.681 | 0.759 | 0.874 | 0.935 | – | – | – | – | – | –
12 | SK-MES-1 | 0.398 | 0.34 | 0.337 | 0.315 | 0.768 | 0.765 | 0.775 | 0.737 | 0.698 | 0.539 | 0.498 | 0.518 | 0.537 | 0.518 | 0.361 | – | – | – | – | –
13 | SW 900 | – | – | – | – | 0.73 | – | 0.907 | 0.857 | 0.803 | 0.686 | – | 0.77 | 0.796 | 0.758 | – | – | – | – | – | –
